Measured values published in patent US20160137639A1, “TRIAZOLE-ISOXAZOLE COMPOUND AND MEDICAL USE THEREOF” (JAPAN TOBACCO INC., priority 2012, published 2016).
Like-named read-outs stand apart in the source and are kept apart here.

Key:
human RORγ = molecular target: T1, human RORγ (Homo sapiens, UniProt P51449); assay: Luciferase reporter gene assay of inhibitory effect against RORγ transcriptional activity (GAL4-hRORγ plasmid in CHO cells); assay type: cell-based
T1 construct: human, NM_005060.3 and from Ser253 to Lys518; expressed in transfected cells; host or cells: CHO cells (transient co-transfection with pG5-Luc reporter)
T1 sequence (P51449 253-518): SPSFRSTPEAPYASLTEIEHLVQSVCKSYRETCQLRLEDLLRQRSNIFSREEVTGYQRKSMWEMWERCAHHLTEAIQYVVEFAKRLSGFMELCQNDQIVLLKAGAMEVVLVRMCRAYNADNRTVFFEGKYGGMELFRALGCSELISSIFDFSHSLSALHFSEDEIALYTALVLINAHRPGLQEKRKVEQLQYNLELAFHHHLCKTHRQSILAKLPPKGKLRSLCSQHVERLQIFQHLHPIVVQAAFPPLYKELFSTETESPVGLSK

mouse RORγ = molecular target: T2, mouse RORγ (Mus musculus, UniProt P51450); assay: Luciferase reporter gene assay of inhibitory effect against RORγ transcriptional activity (GAL4-mRORγ plasmid in CHO cells); assay type: cell-based
T2 construct: mouse, NM_011281.2 and from Ile251 to Lys516; expressed in transfected cells; host or cells: CHO cells (transient co-transfection with pG5-Luc reporter)
T2 sequence (P51450 251-516): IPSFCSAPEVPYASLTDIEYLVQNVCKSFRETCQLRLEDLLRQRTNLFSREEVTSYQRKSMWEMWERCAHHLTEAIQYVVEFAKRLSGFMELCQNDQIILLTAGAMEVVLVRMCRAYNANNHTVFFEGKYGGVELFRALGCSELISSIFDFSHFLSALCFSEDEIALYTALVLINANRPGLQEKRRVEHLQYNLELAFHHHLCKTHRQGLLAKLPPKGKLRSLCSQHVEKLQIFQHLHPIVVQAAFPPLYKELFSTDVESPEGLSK
In short: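 Readout is intracellular luciferase after 2-day compound exposure (8 concentrations, 0.1% DMSO) in CHO cells expressing GAL4 fused to mouse RORγ LBD residues Ile251–Lys516 plus pG5-Luc reporter. EC50 fitted from %-of-control; points showing resazurin-detected cytotoxicity dropped.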

| SMILES | EC50 (human RORγ; read-out: LUC EC50 (μM) hRORg) [µM] | EC50 (mouse RORγ; read-out: LUC EC50 (μM) mRORg) [µM] | EC50 (human RORγ; read-out: LUC EC50 hRORg) [µM] | EC50 (mouse RORγ; read-out: LUC EC50 mRORg) [µM] |
| --- | --- | --- | --- | --- |
| CC(=O)N1C[C@H](C(=O)Nc2ccc(C)cc2C)[C@@H](c2nnc(CCCC(C)(C)C)n2C2CC2)C1 (racemic) [Example F-219] | < 3 | < 3 | – | – |
| Cc1ccc(NC(=O)CCc2nnc(CO)n2C2CC2)c(C)c1 [Example F-96] | > 3 | > 3 | – | – |
| Cc1ccc(NC(=O)CCc2noc([C@H]3C[C@@H](CC(C)(C)C)C3)c2C2CC2)c(Cl)c1 [Example F-719] | – | – | < 3 | < 3 |
| C=CCOc1ccc(-c2nnc(CCC(=O)Nc3ccc(C)cc3C)n2C2CC2)cc1 [Example F-460] | > 3 | > 3 | – | – |
| Cc1ccc(NC(=O)C[C@H](CCC(=O)O)c2noc(-c3cc(C(F)(F)C(C)(C)C)on3)c2C2CC2)c(F)c1 [Example E-46] | < 3 | < 3 | – | – |
| Cc1ccc(NC(=O)CC(Cc2nc(=O)on2C)c2nnc([C@H]3C[C@@H](CC(C)C)C3)n2C2CC2)c(C)c1 (mixture of isomers) [Example F-485] | < 3 | < 3 | – | – |
| Cc1ccc(NC(=O)[C@@H](CC(=O)O)Cc2noc([C@H]3C[C@@H](CC(C)(C)C)C3)c2C2CC2)c(Cl)c1 [Example F-677] | – | – | < 3 | < 3 |
| Cc1c(CO)cccc1NC(=O)CCc1nnc(CCC(C)C)n1C1CC1 [Example F-87] | > 3 | > 3 | – | – |
| Cc1ccc(NC(=O)CCc2nnc(CCC3CCCCC3)n2C2CC2)c(C)c1 [Example F-95] | < 3 | < 3 | – | – |
| Cc1ccc(NC(=O)C[C@@H](c2nnc([C@H]3C[C@@H](CC(C)C)C3)n2C2CC2)N(C)CCO)c(C)c1 [Example F-544] | – | – | < 3 | < 3 |
| Cc1ccc(CCNC(=O)CCc2nnc(CCC(C)C)n2C2CC2)cc1 [Example F-67] | > 3 | > 3 | – | – |
| COc1ccc(CNC(=O)CCc2nnc(CCC(C)C)n2C2CC2)c(C)c1 [Example F-108] | > 3 | > 3 | – | – |
| CCOC(=O)[C@H]1CC[C@H](CCc2nnc(CCC(=O)Nc3cccc(Cl)c3C)n2C2CC2)CC1 [Example F-240] | > 3 | < 3 | – | – |
| Cc1ccc(NC(=O)C[C@H](CCC(=O)O)c2noc(-c3cc(CCC(C)C)on3)c2C2CC2)c(F)c1 [Example E-09] | < 3 | < 3 | – | – |
| Cc1ccc(NC(=O)CCc2nnc(CCC(C)C)n2C2CC2)cc1C [Example F-74] | > 3 | > 3 | – | – |
| O=C(O)CC[C@@H](CC(=O)Nc1ccc(Cl)cc1Cl)c1noc(-c2cc(C3CCCC3)on2)c1C1CC1 [Example E-70] | < 3 | < 3 | – | – |
| Cc1ccccc1NC(=O)CCc1nnc(CCC(C)C)n1C1CC1 [Example F-64] | > 3 | > 3 | – | – |
| Cc1ccc(NC(=O)CC(CCCN(C)C)c2nnc(CCCC(C)C)n2C2CC2)c(C)c1 (racemic) [Example F-288] | > 3 | > 3 | – | – |
| Cc1cc(NC(=O)C[C@H](CC(=O)O)c2noc([C@H]3C[C@@H](CC(C)C)C3)c2C2CC2)no1 [Example F-670] | – | – | > 3 | < 3 |
| Cc1ccc(NC(=O)CCc2nnc([C@H]3C[C@@H](CCC(C)C)C3)n2C2CC2)c(C)c1 [Example F-444] | < 3 | < 3 | – | – |
| Cc1ccc(NC(=O)C[C@H](CCC(=O)O)c2nnc([C@H]3C[C@@H](CC(C)(C)C(C)C)C3)n2C2CC2(F)F)c(Cl)c1 (mixture of isomers) [Example F-714] | – | – | < 3 | < 3 |
| Cc1ccc(NC(=O)C(CC(=O)O)Cc2noc([C@H]3C[C@@H](CC(C)C)C3)c2C2CC2)c(C)c1 (stereo partly shown) [Example F-666] | – | – | > 3 | < 3 |

| SMILES | EC50 (human RORγ; read-out: LUC EC50 (μM) hRORg) [µM] | EC50 (mouse RORγ; read-out: LUC EC50 (μM) mRORg) [µM] | EC50 (human RORγ; read-out: LUC EC50 hRORg) [µM] | EC50 (mouse RORγ; read-out: LUC EC50 mRORg) [µM] |
| --- | --- | --- | --- | --- |
| Cc1cc(Cl)ccc1NC(=O)C[C@H](CCC(=O)O)c1noc(-c2cc(CCC(C)(C)C)on2)c1C1CC1 [Example E-38] | < 3 | < 3 | – | – |
| Cc1ccc(NC(=O)[C@@H](CCC(=O)O)Cc2noc([C@H]3C[C@@H](CC(C)(C)C)C3)c2C2CC2)c(C)c1 [Example F-685] | – | – | < 3 | < 3 |
| CC(=O)N1C[C@H](C(=O)Nc2ccc(Cl)cc2C)[C@@H](c2nnc([C@H]3C[C@@H](CC(C)(C)F)C3)n2C2CC2)C1 [Example F-611] | – | – | < 3 | < 3 |
| COc1cc(C)ccc1CNC(=O)C[C@H](CCO)c1nnc([C@H]2C[C@@H](CC(C)C)C2)n1C1CC1 [Example F-535] | – | – | < 3 | < 3 |
| Cc1c(Cl)cccc1NC(=O)CCc1nnc(CCC2CCCCC2)n1C1CC1 [Example F-94] | < 3 | < 3 | – | – |
| Cc1ccc(NC(=O)CCc2nnc(C3CC(COC(C)C)C3)n2C2CC2)c(C)c1 (single isomer, unassigned) [Example F-478] | > 3 | < 3 | – | – |
| CC(C)CCc1nnc(CCC(=O)NCc2ccccc2)n1C1CC1 [Example F-57] | > 3 | > 3 | – | – |
| CC(=O)OCCC1(c2onc(CCC(=O)Nc3ccc(C)cc3Cl)c2C2CC2)CC(CC(C)(C)C)C1 (mixture of isomers) [Example F-737] | – | – | > 3 | > 3 |
| Cc1ccc(NC(=O)C[C@H](Cc2nccs2)c2nnc([C@H]3C[C@@H](CC(C)C)C3)n2C2CC2)c(C)c1 [Example F-475] | < 3 | < 3 | – | – |
| CCC(C)(C)C[C@H]1C[C@@H](c2onc([C@@H](CCC(=O)O)CC(=O)Nc3ccc(C)nc3C)c2C(F)(F)F)C1 [Example F-697] | – | – | < 3 | < 3 |
| Cc1cccc(CCNC(=O)CCc2nnc(CCC(C)C)n2C2CC2)c1 [Example F-68] | > 3 | > 3 | – | – |
| CCn1c(CCC(=O)Nc2ccc(C)cc2C)nnc1CCC1CCCCC1 [Example F-40] | < 3 | < 3 | – | – |
| Cc1ccc(NC(=O)CC(Cc2nccs2)c2nnc([C@H]3C[C@@H](CC(C)C)C3)n2C2CC2)c(C)c1 (mixture of isomers) [Example F-439] | < 3 | < 3 | – | – |
| Cc1ccc(NC(=O)CC(c2nnc(CCCC(C)(C)C)n2C2CC2)C(C)C)c(C)c1 (racemic) [Example F-453] | < 3 | < 3 | – | – |
| Cc1ccc(NC(=O)CC(CC(=O)O)c2nnc(CCCC(C)C)n2C2CC2)c(C)c1 (racemic) [Example F-252] | > 3 | > 3 | – | – |
| CC(C)CCc1nnc(CCC(=O)Nc2nnc3ccccn23)n1C1CC1 [Example F-139] | > 3 | > 3 | – | – |
| Cc1ccc(NC(=O)C[C@H](CCO)c2nnc(CCCC(C)C)n2C2CC2)c(C)c1 [Example F-314] | < 3 | < 3 | – | – |
| CC(C)(C)Cc1cc(-c2noc([C@@H](CCC(=O)O)CC(=O)Nc3ccc(Cl)cc3F)c2C2CC2)no1 [Example E-76] | < 3 | < 3 | – | – |
| COCc1ccc(C)c(NC(=O)CCc2nnc(CCC(C)C)n2C2CC2)c1 [Example F-174] | > 3 | > 3 | – | – |
| Cc1ccc(NC(=O)CCc2nnc(CCCC(C)(C)C)n2C2CC2)c(C)c1 [Example F-305] | < 3 | < 3 | – | – |
| CCn1c(C(C)CC(=O)Nc2cccc3ccccc23)nnc1C1Cc2ccccc2C1 (racemic) [Example F-33] | < 3 | < 3 | – | – |
| Cc1ccc(NC(=O)C[C@@H](c2nnc(CCCC(C)(C)C)n2C2CC2)N(C)C(=O)OCc2ccccc2)c(C)c1 [Example F-352] | > 3 | > 3 | – | – |
